Reference: patent US9617256B2 (priority 2007, dated 2017)
Converted amounts (≈) assume the structure as drawn. Read-outs that look alike come from different tables or passages of the source.

How the values were obtained:
[1] = system: APAE006 in the presence of 8 micrograms per milliliter of polymyxin B nonapeptide; type: cell-based, P. aeruginosa; details: APAE006 with 8 micrograms per milliliter polymyxin B nonapeptide
Description: (§1) Bacterial isolates were cultivated from −70° C. frozen stocks by overnight passages at 35° C. in ambient air on Mueller-Hinton agar (Beckton Dickinson, Franklin Lakes, N.J.). Clinical isolates tested were obtained from various geographically diverse hospitals in the US and abroad (Focus Diagnostics, Herndon, Va. and JMI, North Liberty, Iowa). Quality control strains were from the American Type Culture Collection (ATCC; Rockville, Md.). Additional primary panel strains were generated using standard molecular biology techniques.
(§2) Minimum Inhibitory Concentrations (MICs) were determined by the broth microdilution method in accordance with the Clinical and Laboratory Standards Institute (CLSI) guidelines. In brief, organism suspensions were adjusted to a 0.5 McFarland standard to yield a final inoculum between 3×10^5 and 7×10^5 colony-forming units (CFU)/mL. Drug dilutions and inocula were made in sterile, cation adjusted Mueller-Hinton Broth (Beckton Dickinson). An inoculum volume of 100 μL was added to wells containing 100 μL of broth with 2-fold serial dilutions of drug. All inoculated microdilution trays were incubated in ambient air at 35° C. for 18-24 hours. […] Performance of the assay was monitored by the use of laboratory quality-control strains and levofloxacin, a compound with a defined MIC spectrum, in accordance with CLSI guidelines.
(§3) *AECO001 is ATCC25922, AECO063 is ATCC25922 bearing an acrAB mutation, APAE001 is ATCC27853, APAE006 is a strain of P. aeruginosa in which all efflux pumps are inactivated, APAE006+PMBN indicates MICs with the indicated strain in the presence of 8 micrograms per milliliter of polymyxin B nonapeptide, AABA1060 is a clinical isolate of Acinetobacter baumannii, ASAU001 is a laboratory strain of S. aureus (ATCC29213).

[2] = system: AABA1060 (clinical isolate of Acinetobacter baumannii); experiment: MIC broth microdilution, AABA1060; type: cell-based; details: Acinetobacter baumannii, read-out: MIC AABA1060
Description: as §1, §2, §3

[3] = system: APAE006 (strain of P. aeruginosa in which all efflux pumps are inactivated); experiment: microbe, parasite or virus in culture; type: cell-based; details: Pseudomonas aeruginosa, read-out: MIC APAE006, APAE006, all efflux pumps inactivated
Description: as §1, §2, §3

[4] = system: ASAU001 (laboratory strain of S. aureus, ATCC29213); experiment: MIC broth microdilution, ASAU001; type: cell-based; details: Staphylococcus aureus, ATCC29213, read-out: MIC ASAU001
Description: as §1, §2, §3

AECO001 (ATCC25922) = experiment: MIC broth microdilution, AECO001; type: cell-based, E. coli; details: Escherichia coli
Description: as §1, §2, §3

APAE001 (ATCC27853) = experiment: MIC broth microdilution, APAE001; type: cell-based, P. aeruginosa; details: Pseudomonas aeruginosa, ATCC27853, read-out: MIC APAE001, APAE001 (ATCC27853)
Description: as §1, §2, §3

[5] = system: AECO063 (ATCC25922 bearing an acrAB mutation); experiment: microbe, parasite or virus in culture; type: cell-based, E. coli; details: Escherichia coli, ATCC25922, read-out: MIC AECO063
Description: as §1, §2, §3

[6] = ATCC25922, read-out: MIC AECO001
[7] = ATCC25922, read-out: MIC AECO001 HSA AGP

SMILES: C[C@@H](N)[C@H](NC(=O)c1ccc(C#CC#C[C@H](C)N2CCOCC2)cc1)C(=O)NO [Example 92-2, N-((2S,3R)-3-amino-1-(hydroxyamino)-1-oxobutan-2-yl)-4-((S)-5-morpholinohexa-1,3-diynyl)benzamide]
- MIC APAE006 + PMBN [1]: B (MIC's of greater than 2.0 μg/mL to 16.0 μg/mL = B)
- MIC [2]: 16 to 64 µg/mL (≈ 40.2 to 161 µM)
- MIC [3]: 2 to 16 µg/mL (≈ 5.02 to 40.2 µM)
- MIC [4]: 16 to 64 µg/mL (≈ 40.2 to 161 µM)
- MIC (AECO001 (ATCC25922); [6]): 16 to 64 µg/mL (≈ 40.2 to 161 µM)
- MIC (AECO001 (ATCC25922); [7]): 16 to 64 µg/mL (≈ 40.2 to 161 µM)
- MIC (APAE001 (ATCC27853)): 16 to 64 µg/mL (≈ 40.2 to 161 µM)
- MIC [5]: 2 to 16 µg/mL (≈ 5.02 to 40.2 µM)

SMILES: C[C@@H](N)[C@H](NC(=O)c1ccc(C#Cc2ccc(NC(=O)CNC3CC3)cc2)cc1)C(=O)NO [Example 130-1, N-((1S,2R)-2-Amino-1-hydroxycarbamoyl-propyl)-4-[4-(2-cyclopropylamino-acetylamino)-phenylethynyl]-benzamide]
- MIC APAE006 + PMBN [1]: A (MIC's of 2.0 μg/mL or less = A)
- MIC [2]: 2 to 16 µg/mL (≈ 4.45 to 35.6 µM)
- MIC [3]: < 2 µg/mL
- MIC [4]: 16 to 64 µg/mL (≈ 35.6 to 142 µM)
- MIC (AECO001 (ATCC25922); [6]): 2 to 16 µg/mL (≈ 4.45 to 35.6 µM)
- MIC (AECO001 (ATCC25922); [7]): 16 to 64 µg/mL (≈ 35.6 to 142 µM)
- MIC (APAE001 (ATCC27853)): < 2 µg/mL
- MIC [5]: < 2 µg/mL

SMILES: C[C@@H](NCC(=O)N[C@H](C)[C@H](NC(=O)c1ccc(C#Cc2ccccc2)cc1)C(=O)NO)c1ccccc1 [Example 132-6]
- MIC APAE006 + PMBN [1]: A (MIC's of 2.0 μg/mL or less = A)
- MIC [2]: 16 to 64 µg/mL (≈ 32.1 to 128 µM)
- MIC [3]: < 2 µg/mL
- MIC [4]: 16 to 64 µg/mL (≈ 32.1 to 128 µM)
- MIC (AECO001 (ATCC25922); [6]): 2 to 16 µg/mL (≈ 4.01 to 32.1 µM)
- MIC (AECO001 (ATCC25922); [7]): 16 to 64 µg/mL (≈ 32.1 to 128 µM)
- MIC (APAE001 (ATCC27853)): 16 to 64 µg/mL (≈ 32.1 to 128 µM)
- MIC [5]: < 2 µg/mL

SMILES: C[C@@H](O)[C@H](NC(=O)c1ccc(C#C/C=C/C2CC2)cc1)C(=O)NO [Example 107-3]
- MIC APAE006 + PMBN [1]: A (MIC's of 2.0 μg/mL or less = A)
- MIC [2]: 2 to 16 µg/mL (≈ 6.09 to 48.7 µM)
- MIC [3]: < 2 µg/mL
- MIC [4]: 16 to 64 µg/mL (≈ 48.7 to 195 µM)
- MIC (AECO001 (ATCC25922); [6]): < 2 µg/mL
- MIC (AECO001 (ATCC25922); [7]): 2 to 16 µg/mL (≈ 6.09 to 48.7 µM)
- MIC (APAE001 (ATCC27853)): < 2 µg/mL
- MIC [5]: < 2 µg/mL

SMILES: CC(C)(N)[C@H](NC(=O)c1ccc(C#C/C=C/C2CC2)cc1)C(=O)NO [Example 107-4]
- MIC APAE006 + PMBN [1]: A (MIC's of 2.0 μg/mL or less = A)
- MIC [2]: < 2 µg/mL
- MIC [3]: < 2 µg/mL
- MIC [4]: 2 to 16 µg/mL (≈ 5.86 to 46.9 µM)
- MIC (AECO001 (ATCC25922); [6]): < 2 µg/mL
- MIC (AECO001 (ATCC25922); [7]): < 2 µg/mL
- MIC (APAE001 (ATCC27853)): < 2 µg/mL
- MIC [5]: < 2 µg/mL

SMILES: CC(C)(O)[C@H](NC(=O)c1ccc(C#Cc2ccncc2)cc1)C(=O)NO [Example 133-15]
- MIC APAE006 + PMBN [1]: A (MIC's of 2.0 μg/mL or less = A)
- MIC [2]: 2 to 16 µg/mL (≈ 5.66 to 45.3 µM)
- MIC [3]: < 2 µg/mL
- MIC [4]: 16 to 64 µg/mL (≈ 45.3 to 181 µM)
- MIC (AECO001 (ATCC25922); [6]): 2 to 16 µg/mL (≈ 5.66 to 45.3 µM)
- MIC (AECO001 (ATCC25922); [7]): 2 to 16 µg/mL (≈ 5.66 to 45.3 µM)
- MIC (APAE001 (ATCC27853)): 2 to 16 µg/mL (≈ 5.66 to 45.3 µM)
- MIC [5]: < 2 µg/mL

SMILES: CC(C)(N)[C@H](NC(=O)c1ccc(C#CC#Cc2ccc(F)cc2)cc1)C(=O)NO [Example 82-28]
- MIC APAE006 + PMBN [1]: A (MIC's of 2.0 μg/mL or less = A)
- MIC [2]: < 2 µg/mL
- MIC [3]: < 2 µg/mL
- MIC [4]: 2 to 16 µg/mL (≈ 5.08 to 40.7 µM)
- MIC (AECO001 (ATCC25922); [6]): < 2 µg/mL
- MIC (AECO001 (ATCC25922); [7]): 2 to 16 µg/mL (≈ 5.08 to 40.7 µM)
- MIC (APAE001 (ATCC27853)): 2 to 16 µg/mL (≈ 5.08 to 40.7 µM)
- MIC [5]: < 2 µg/mL

SMILES: CC(C)(O)[C@H](NC(=O)c1ccc(C#CC#Cc2ccc(F)cc2)cc1)C(=O)NO [Example 82-19]
- MIC APAE006 + PMBN [1]: A (MIC's of 2.0 μg/mL or less = A)
- MIC [2]: < 2 µg/mL
- MIC [3]: < 2 µg/mL
- MIC [4]: 16 to 64 µg/mL (≈ 40.6 to 162 µM)
- MIC (AECO001 (ATCC25922); [6]): < 2 µg/mL
- MIC (AECO001 (ATCC25922); [7]): 2 to 16 µg/mL (≈ 5.07 to 40.6 µM)
- MIC (APAE001 (ATCC27853)): 2 to 16 µg/mL (≈ 5.07 to 40.6 µM)
- MIC [5]: < 2 µg/mL

SMILES: C[C@@H](N)[C@H](NC(=O)c1ccc(C#CC#CC2CCNCC2)cc1)C(=O)NO [Example 137-22]
- MIC APAE006 + PMBN [1]: B (MIC's of greater than 2.0 μg/mL to 16.0 μg/mL = B)
- MIC [2]: 16 to 64 µg/mL (≈ 43.4 to 174 µM)
- MIC [3]: 2 to 16 µg/mL (≈ 5.43 to 43.4 µM)
- MIC [4]: 16 to 64 µg/mL (≈ 43.4 to 174 µM)
- MIC (AECO001 (ATCC25922); [6]): 16 to 64 µg/mL (≈ 43.4 to 174 µM)
- MIC (AECO001 (ATCC25922); [7]): 16 to 64 µg/mL (≈ 43.4 to 174 µM)
- MIC (APAE001 (ATCC27853)): 2 to 16 µg/mL (≈ 5.43 to 43.4 µM)
- MIC [5]: 16 to 64 µg/mL (≈ 43.4 to 174 µM)

SMILES: CC(C)(N)[C@H](NC(=O)c1ccc(C#CC#Cc2ccc(CN3CCS(=O)(=O)CC3)cc2)cc1)C(=O)NO [Example 86-7]
- MIC APAE006 + PMBN [1]: A (MIC's of 2.0 μg/mL or less = A)
- MIC [2]: < 2 µg/mL
- MIC [3]: < 2 µg/mL
- MIC [4]: 16 to 64 µg/mL (≈ 30.6 to 122 µM)
- MIC (AECO001 (ATCC25922); [6]): < 2 µg/mL
- MIC (AECO001 (ATCC25922); [7]): 2 to 16 µg/mL (≈ 3.83 to 30.6 µM)
- MIC (APAE001 (ATCC27853)): 2 to 16 µg/mL (≈ 3.83 to 30.6 µM)
- MIC [5]: < 2 µg/mL

SMILES: C[C@@H](O)[C@H](NC(=O)c1ccc(/C=C/C#Cc2ccccc2)cc1)C(=O)NO [Example 114-14]
- MIC APAE006 + PMBN [1]: A (MIC's of 2.0 μg/mL or less = A)
- MIC [2]: < 2 µg/mL
- MIC [3]: < 2 µg/mL
- MIC [4]: 16 to 64 µg/mL (≈ 43.9 to 176 µM)
- MIC (AECO001 (ATCC25922); [6]): < 2 µg/mL
- MIC (AECO001 (ATCC25922); [7]): 2 to 16 µg/mL (≈ 5.49 to 43.9 µM)
- MIC (APAE001 (ATCC27853)): 2 to 16 µg/mL (≈ 5.49 to 43.9 µM)
- MIC [5]: < 2 µg/mL

SMILES: CC(C)(O)[C@H](NC(=O)c1ccc(C#Cc2ccc(CN3CCCOCC3)cc2)cc1)C(=O)NO [Example 122-8]
- MIC APAE006 + PMBN [1]: A (MIC's of 2.0 μg/mL or less = A)
- MIC [2]: 2 to 16 µg/mL (≈ 4.3 to 34.4 µM)
- MIC [3]: < 2 µg/mL
- MIC [4]: 16 to 64 µg/mL (≈ 34.4 to 137 µM)
- MIC (AECO001 (ATCC25922); [6]): < 2 µg/mL
- MIC (AECO001 (ATCC25922); [7]): < 2 µg/mL
- MIC (APAE001 (ATCC27853)): < 2 µg/mL
- MIC [5]: < 2 µg/mL
